Measurements as given in patent publication US5459141A, “Compounds 31668P and 31668U, a process for their production and their use” (Hoechst Aktiengesellschaft, priority 1992, dated 1995).
Entries after “also recorded” stand apart in the source; their conditions may differ. Like-named read-outs stand apart in the source and are kept apart here.

Legend:
[1] = Cytotoxic / cytostatic activity (general statement); details: in words
[2] = system: gram-positive and gram-negative bacteria; assay: Antibacterial activity (general statement); type: cell-based; details: in words
[3] = system: Enterobact. cloacae 1321 E; assay: Minimal inhibitory concentration, broth-dilution test; type: cell-based
Text: (§1) The antibacterial activity of 31668P and 31668U as Minimum Inhibitory Concentration values required to inhibit the growth of various bacteria are shown in Table 1.
(§2) Minimal inhibitory concentrations of the anitbiotics 31668P and
(§3) 31668U determined by the broth-dilution tests against selected
(§4) strains of bacteria (microgram per ml)

[4] = system: Pseud. aeruginosa ATCC 9027; assay: as above; type: cell-based; details: Pseudomonas aeruginosa, ATCC9027
Text: as §1, §2, §3, §4

[5] = system: Pseud. aeruginosa 1592 E; assay: as above; type: cell-based; details: Pseudomonas aeruginosa
Text: as §1, §2, §3, §4

[6] = system: Strept. faecium D; assay: as above; type: cell-based; details: Enterococcus faecium
Text: as §1, §2, §3, §4

[7] = system: Pseud. aeruginosa 1771; assay: as above; type: cell-based; details: Pseudomonas aeruginosa
Text: as §1, §2, §3, §4

[8] = system: E. coli 1507 E; assay: as above; type: cell-based; details: Escherichia coli, read-out: Minimal inhibitory concentration
Text: as §1, §2, §3, §4

[9] = system: Enterobact. cloacae P 99; assay: as above; type: cell-based; details: read-out: Minimal inhibitory concentration
Text: as §1, §2, §3, §4

[10] = system: E. coli TEM; assay: as above; type: cell-based; details: Escherichia coli, read-out: Minimal inhibitory concentration
Text: as §1, §2, §3, §4

[11] = system: Staph. aureus SG 511; assay: as above; type: cell-based; details: Staphylococcus aureus, SG511
Text: as §1, §2, §3, §4

[12] = system: Saim. typhimurium; assay: as above; type: cell-based
Text: as §1, §2, §3, §4

[13] = system: Klebs. spec. 1522 E; assay: as above; type: cell-based; details: read-out: Minimal inhibitory concentration
Text: as §1, §2, §3, §4

[14] = system: Staph. aureus 503; assay: as above; type: cell-based; details: Staphylococcus aureus
Text: as §1, §2, §3, §4

[15] = system: E. coli DC 2; assay: as above; type: cell-based; details: Escherichia coli, DC2
Text: as §1, §2, §3, §4

[16] = system: Klebs. spec. 1082E (K-1); assay: as above; type: cell-based
Text: as §1, §2, §3, §4

[17] = system: Pseud. aeruginosa 1771 M; assay: as above; type: cell-based; details: Pseudomonas aeruginosa
Text: as §1, §2, §3, §4

[18] = system: Strept. pyogenes 77 A; assay: as above; type: cell-based; details: Streptococcus pyogenes
Text: as §1, §2, §3, §4

[19] = system: Strept. pyogenes 308 A; assay: as above; type: cell-based; details: Streptococcus pyogenes
Text: as §1, §2, §3, §4

[20] = system: Staph. aureus 285; assay: as above; type: cell-based; details: Staphylococcus aureus
Text: as §1, §2, §3, §4

[21] = system: E. coli 078; assay: as above; type: cell-based; details: Escherichia coli
Text: as §1, §2, §3, §4

[22] = system: E. coli DC 0; assay: as above; type: cell-based; details: Escherichia coli, DC0
Text: as §1, §2, §3, §4

With `COC1=C(C)C(=O)C2=C(C1=O)C(CO)[N+]1=CC3CC4C(C1C2N1CCOC41)N3C` (centres unmarked) [Compound 31668U] the “cytotoxic activity / cytostatic effect” value [1] was “cytotoxic activity; also recorded: cytostatic effect”, the “antibacterial / antibiotic activity” value [2] was “active against a large number of both gram-positive and gram-negative bacteria; also recorded: have an antibiotic activity” and the MIC [3] was 0.195 µg/mL. For the same molecule, the MIC [4] was 6.25 µg/mL, the MIC [5] was 6.25 µg/mL and the MIC [6] was 0.195 µg/mL. The MIC [7] was 12.5 µg/mL, the MIC ([8]; E. coli 1507 E) was 3.13 µg/mL and the MIC [9] was 1.56 µg/mL. The MIC [10] was 1.56 µg/mL, the MIC [11] was < 0.002 µg/mL and the MIC [12] was 3.13 µg/mL. The MIC [13] was 1.56 µg/mL, the MIC [14] was < 0.002 µg/mL and the MIC [15] was 0.781 µg/mL. The MIC [16] was 0.781 µg/mL, the MIC [17] was 1.56 µg/mL and the MIC [18] was < 0.002 µg/mL. The MIC [19] was < 0.002 µg/mL, the MIC [20] was < 0.002 µg/mL and the MIC [21] was 0.195 µg/mL. It also gave an MIC [22] of 6.25 µg/mL.
For `COc1c(C)c(O)c2c(c1O)C(CO)[N+]1=CC3CC4C(C1C2N1CCOC41)N3C` (centres unmarked) [Compound 31668P], the “cytotoxic activity / cytostatic effect” value [1] was “cytotoxic activity; also recorded: cytostatic effect”, the “antibacterial / antibiotic activity” value [2] was “active against a large number of both gram-positive and gram-negative bacteria; also recorded: have an antibiotic activity” and the MIC [3] was 0.098 µg/mL. It also gave an MIC [4] of 0.781 µg/mL, an MIC [5] of 0.781 µg/mL and an MIC [6] of 0.025 µg/mL. For the same molecule, the MIC [7] was 1.56 µg/mL, the MIC ([8]; 1507E) was 0.195 µg/mL and the MIC [9] was 0.195 µg/mL. For the same molecule, the MIC [10] was 0.195 µg/mL, the MIC [11] was < 0.002 µg/mL and the MIC [12] was 0.391 µg/mL. For the same molecule, the MIC ([13]; Klebs. spec. 1522 E) was 0.391 µg/mL, the MIC [14] was < 0.002 µg/mL and the MIC [15] was 0.195 µg/mL. For the same molecule, the MIC [16] was 0.391 µg/mL, the MIC [17] was 0.391 µg/mL and the MIC [18] was < 0.002 µg/mL. The MIC [19] was < 0.002 µg/mL, the MIC [20] was < 0.002 µg/mL and the MIC [21] was 0.049 µg/mL. For the same molecule, the MIC [22] was 0.781 µg/mL.
